Biological target: T1, Cbl-b (Homo sapiens, UniProt Q13191)
T1 construct: Cbl-b-HiBit KI Jurkat Cells were purchased from Promega; host or cells: Cbl-b-HiBiT knock-in Jurkat cells
Assay: Cbl-b Degradation Method B (Nano-Glo HiBiT lytic detection)
Type: cell-based
Conditions: Cbl-b-HiBit KI Jurkat Cells, incubated at least 6-24 hours; for DC50: half maximal degradation, read-out: Cbl-b Degredation Method B IC50; for Dmax: maximum degradation observed, read-out: Cbl-b Degredation Method B Dmax (%)
Method: Cbl-b Degradation Method B [table] Cbl-b-HiBit KI Jurkat Cells were purchased from Promega, and cell media consisted of RPMI 1640 with 10% […] and 1% pen/strep. The cells were counted, measured for viability, and 35 μL of the cell solution was seeded into 384 well flat bottom plates at a ratio of 20,000 cells per 35 μL. After which, the plates were incubated for ˜24 hours at 37° C. and 5% CO2. Compounds were ordered from Evotec in a 384 well plate at a 1 mM top concentration in DMSO and serially diluted 1:3 in DMSO for an 11-point dose response. Using the Bravo instrument, 1 uL of compound solution or DMSO was transferred to 125 uL of media. Each well was treated with 5 μL of compound plus media mixture or DMO and subsequently incubated for at least 6-24 hours at 37° C. and 5% CO2. After incubation, 30 μL of either NanoGlo media was added to each cell, and the plates read on the Synergy Neo2 machine. The concentration of an exemplary compound that leads to half maximal degradation (DC50) as well as the maximum degradation observed (Dmax, conventionally expressed as a percentage of control) is shown below in Table 2.

T1 sequence (Q13191 whole entry): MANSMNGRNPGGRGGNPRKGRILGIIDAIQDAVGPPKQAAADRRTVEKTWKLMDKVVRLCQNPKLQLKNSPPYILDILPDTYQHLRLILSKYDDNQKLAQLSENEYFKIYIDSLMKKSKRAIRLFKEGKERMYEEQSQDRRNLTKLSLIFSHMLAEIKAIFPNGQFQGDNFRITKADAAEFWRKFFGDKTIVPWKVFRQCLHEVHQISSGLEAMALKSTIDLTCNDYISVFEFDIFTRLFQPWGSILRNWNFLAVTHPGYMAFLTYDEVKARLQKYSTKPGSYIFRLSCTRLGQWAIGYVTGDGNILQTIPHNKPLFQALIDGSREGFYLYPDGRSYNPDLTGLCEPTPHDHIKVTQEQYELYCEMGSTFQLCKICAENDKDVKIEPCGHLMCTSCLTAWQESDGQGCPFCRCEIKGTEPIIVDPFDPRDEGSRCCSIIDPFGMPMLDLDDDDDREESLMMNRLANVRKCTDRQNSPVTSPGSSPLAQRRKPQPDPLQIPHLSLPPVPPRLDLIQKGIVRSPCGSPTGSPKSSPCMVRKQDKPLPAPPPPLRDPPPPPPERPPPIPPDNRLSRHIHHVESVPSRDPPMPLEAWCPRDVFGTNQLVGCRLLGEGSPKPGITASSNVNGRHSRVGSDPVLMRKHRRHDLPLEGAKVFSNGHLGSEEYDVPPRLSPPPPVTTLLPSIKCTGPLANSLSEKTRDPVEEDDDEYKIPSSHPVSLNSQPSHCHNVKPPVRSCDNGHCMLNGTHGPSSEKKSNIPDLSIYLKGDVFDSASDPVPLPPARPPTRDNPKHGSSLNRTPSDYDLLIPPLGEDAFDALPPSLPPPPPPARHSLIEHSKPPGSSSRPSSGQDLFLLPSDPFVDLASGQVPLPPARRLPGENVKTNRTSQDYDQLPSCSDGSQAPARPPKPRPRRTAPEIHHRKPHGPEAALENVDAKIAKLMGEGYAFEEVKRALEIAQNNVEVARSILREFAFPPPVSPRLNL

SMILES	DC50	Dmax
CC1c2nc(N3CCC(O[C@H]4CC[C@H](CN5CCN(Cc6cc7c(c(C(F)(F)F)c6)CN(c6cccc(C8(Cc9nncn9C)CCOCC8)c6)C7=O)CC5)CC4)CC3)ccc2C(=O)N1C1CCC(=O)NC1=O (mixture of isomers) [Example 233, rac-3-[7-methyl-5-oxo-2-(4-{[(1r,4r)-4-[(4-{[2-(3-{4-[(4-methyl-4H-1,2,4-triazol-3-yl)methyl]oxan-4-yl}phenyl)-3-oxo-7-(trifluoromethyl)-2,3-dihydro-1H-isoindol-5-yl]methyl}piperazin-1-yl)methyl]cyclohexyl]oxy}piperidin-1-yl)-5H,6H,7H-pyrrolo[3,4-b]pyridin-6-yl]piperidine-2,6-dione]	> 500 nM	–
CCn1cnnc1CC1(c2cccc(N3Cc4c(cc(CN5CCN(C[C@H]6CC[C@H](OC7CCN(c8ccc9c(n8)C(C)N(C8CCC(=O)NC8=O)C9=O)CC7)CC6)CC5)cc4C(F)(F)F)C3=O)c2)COC1 (mixture of isomers) [Example 235, rac-3-[7-methyl-5-oxo-2-(4-{[(1r,4r)-4-[(4-{[2-(3-{3-[(4-ethyl-4H-1,2,4-triazol-3-yl)methyl]oxetan-3-yl}phenyl)-3-oxo-7-(trifluoromethyl)-2,3-dihydro-1H-isoindol-5-yl]methyl}piperazin-1-yl)methyl]cyclohexyl]oxy}piperidin-1-yl)-5H,6H,7H-pyrrolo[3,4-b]pyridin-6-yl]piperidine-2,6-dione]	< 5 nM	35 to 70%
CC1c2nc(N3CCC(O[C@H]4CC[C@H](CN5CCN(Cc6cc(C(F)(F)F)c7cn(-c8cccc(C9(Cc%10nncn%10C)CC9)c8)nc7c6)C(C)(C)C5)CC4)CC3)ccc2C(=O)N1C1CCC(=O)NC1=O (relative stereo) [Example 253, rel-3-[7-methyl-5-oxo-2-(4-{[(1r,4r)-4-[(3,3-dimethyl-4-{[2-(3-{1-[(4-methyl-4H-1,2,4-triazol-3-yl)methyl]cyclopropyl}phenyl)-4-(trifluoromethyl)-2H-indazol-6-yl]methyl}piperazin-1-yl)methyl]cyclohexyl]oxy}piperidin-1-yl)-5H,6H,7H-pyrrolo[3,4-b]pyridin-6-yl]piperidine-2,6-dione]	> 500 nM	–
CC1c2nc(N3CCC(O[C@H]4CC[C@H](CN5CCN(Cc6cc(C(F)(F)F)c7cn(-c8cccc(C9(Cc%10nncn%10C)CCC9)c8)nc7c6)C(C)(C)C5)CC4)CC3)ccc2C(=O)N1C1CCC(=O)NC1=O (relative stereo) [Example 255, rel-3-[7-methyl-5-oxo-2-(4-{[(1r,4r)-4-[(3,3-dimethyl-4-{[2-(3-{1-[(4-methyl-4H-1,2,4-triazol-3-yl)methyl]cyclobutyl}phenyl)-4-(trifluoromethyl)-2H-indazol-6-yl]methyl}piperazin-1-yl)methyl]cyclohexyl]oxy}piperidin-1-yl)-5H,6H,7H-pyrrolo[3,4-b]pyridin-6-yl]piperidine-2,6-dione]	> 500 nM	–

Now from value to compound:

DC50	Dmax	SMILES
< 5 nM	35 to 70%	CC1c2nc(N3CCC(O[C@H]4CC[C@H](CN5CCN(Cc6cc7c(c(C(F)(F)F)c6)CN(c6cccc(C8(Cc9nncn9C)COC8)c6)C7=O)C(C)(C)C5)CC4)CC3)ccc2C(=O)N1C1CCC(=O)NC1=O (relative stereo) [Example 246, rel-3-[7-methyl-5-oxo-2-(4-{[(1r,4r)-4-[(3,3-dimethyl-4-{[2-(3-{3-[(4-methyl-4H-1,2,4-triazol-3-yl)methyl]oxetan-3-yl}phenyl)-3-oxo-7-(trifluoromethyl)-2,3-dihydro-1H-isoindol-5-yl]methyl}piperazin-1-yl)methyl]cyclohexyl]oxy}piperidin-1-yl)-5H,6H,7H-pyrrolo[3,4-b]pyridin-6-yl]piperidine-2,6-dione]
< 5 nM	> 70%	C[C@@H]1CN(CC2CCC(OC3CCN(c4ccc5c(n4)[C@@H](C)N(C4CCC(=O)NC4=O)C5=O)CC3)CC2)CCN1Cc1cc2c(c(C(F)(F)F)c1)CN(c1cccc([C@]3(Cc4nncn4C)C[C@H](C#N)C3)c1)C2=O (single isomer, unassigned) [Example 239, (1rs&,3rs&)-3-[3-(6-{[(2R)-2-methyl-4-{[(1rs,4rs)-4-({1-[(7R*)-6-(2,6-dioxopiperidin-3-yl)-7-methyl-5-oxo-5H,6H,7H-pyrrolo[3,4-b]pyridin-2-yl]piperidin-4-yl}oxy)cyclohexyl]methyl}piperazin-1-yl]methyl}-1-oxo-4-(trifluoromethyl)-2,3-dihydro-1H-isoindol-2-yl)phenyl]-3-[(4-methyl-4H-1,2,4-triazol-3-yl)methyl]cyclobutane-1-carbonitrile]
> 500 nM	–	C[C@@H]1CN(CC2CCC(OC3CCN(c4ccc5c(n4)[C@@H](C)N(C4CCC(=O)NC4=O)C5=O)CC3)CC2)CCN1Cc1cc2c(c(C(F)(F)F)c1)CN(c1cccc([C@]3(Cc4nncn4C)C[C@H](C#N)C3)c1)C2=O (single isomer, unassigned) [Example 240, (1rs&,3rs&)-3-[3-(6-{[(2R)-2-methyl-4-{[(1rs,4rs)-4-({1-[(7R*)-6-(2,6-dioxopiperidin-3-yl)-7-methyl-5-oxo-5H,6H,7H-pyrrolo[3,4-b]pyridin-2-yl]piperidin-4-yl}oxy)cyclohexyl]methyl}piperazin-1-yl]methyl}-1-oxo-4-(trifluoromethyl)-2,3-dihydro-1H-isoindol-2-yl)phenyl]-3-[(4-methyl-4H-1,2,4-triazol-3-yl)methyl]cyclobutane-1-carbonitrile]
< 5 nM	> 70%	C[C@@H]1c2nc(N3CCC(O[C@H]4CC[C@H](CN5CCN(Cc6cc7c(c(C(F)(F)F)c6)CN(c6cccc(C8(Cc9nncn9C)CC(C#N)C8)c6)C7=O)[C@@H](C)C5)CC4)CC3)ccc2C(=O)N1C1CCC(=O)NC1=O (single isomer, unassigned) [Example 247, (1r***,3r***)-3-[3-(6-{[(2S)-2-methyl-4-{[(1r**,4r**)-4-({1-[(7R*)-6-(2,6-dioxopiperidin-3-yl)-7-methyl-5-oxo-5H,6H,7H-pyrrolo[3,4-b]pyridin-2-yl]piperidin-4-yl}oxy)cyclohexyl]methyl}piperazin-1-yl]methyl}-1-oxo-4-(trifluoromethyl)-2,3-dihydro-1H-isoindol-2-yl)phenyl]-3-[(4-methyl-4H-1,2,4-triazol-3-yl)methyl]cyclobutane-1-carbonitrile]
> 500 nM	–	C[C@@H]1c2nc(N3CCC(O[C@H]4CC[C@H](CN5CCN(Cc6cc7c(c(C(F)(F)F)c6)CN(c6cccc(C8(Cc9nncn9C)CC(C#N)C8)c6)C7=O)[C@@H](C)C5)CC4)CC3)ccc2C(=O)N1C1CCC(=O)NC1=O (single isomer, unassigned) [Example 248, (1r***,3r***)-3-[3-(6-{[(2S)-2-methyl-4-{[(1r**,4r**)-4-({1-[(7R*)-6-(2,6-dioxopiperidin-3-yl)-7-methyl-5-oxo-5H,6H,7H-pyrrolo[3,4-b]pyridin-2-yl]piperidin-4-yl}oxy)cyclohexyl]methyl}piperazin-1-yl]methyl}-1-oxo-4-(trifluoromethyl)-2,3-dihydro-1H-isoindol-2-yl)phenyl]-3-[(4-methyl-4H-1,2,4-triazol-3-yl)methyl]cyclobutane-1-carbonitrile]

— US20260184710A1, “CASITAS B-LINEAGE LYMPHOMA PROTOONCOGENE B (CBL-B) DEGRADING COMPOUNDS AND ASSOCIATED METHODS OF USE” (Arvinas Operations, Inc., priority 2022, published 2026)
